Ends that are not written are not given here.
Legend:
[1] = test system: FGF21-induced ERK phosphorylation in human KLB overexpressing 293T HEK cells (293/KLB); assay: Peptide antagonism of FGF21-induced pERK, AlphaLISA; assay type: cell-based; details: 293/KLB cells; fixed dose of FGF21, 10 min at 37° C; n = 3
Procedure: (§1) 293T HEK cells expressing KLB (or KL) or Hep3B cells were plated to 5–6 x 10^4 cells/well density in 96-well cell culture plate coated with poly-D-Lysine (Corning). The cells were serum starved for four hours in 0.1% BSA fraction V (ThermoFisher) containing media prior to treatment with protein and/or an antagonist peptide at the mentioned concentrations for 10 min at 37° C. For the antagonist assays, a chosen fixed dose within the range of 0.8–30 nM (depending on the cell type) of FGF21 or FGF19 stimulant was added to all the wells. BaF3 cells expressing human KLB/FGFR1c or human KLB/FGFR4-1c chimera were seeded at 5 × 10^5 cells/well density in 96-well cell culture plate and serum-starved overnight. FGF21/19 analogs were diluted in 0.02% Tween-20 containing RPMI1640 medium and the cells were treated for 15 min at 37° C. Following the respective cell treatments, the cells were lysed (with lysis buffer provided in the kit) for 10 min at room temperature on a shaker and the lysate was mixed with reaction mixture (consisting of reaction buffer, activation buffer, acceptor and donor beads provided in the kit). Phosphorylated ERK1/2 (pERK) levels were subsequently recorded by EnSpire Alpha or Envision Multilabel plate reader (Perkin Elmer). The cell assays corresponding to 293/KLB or Hep3B cells were carried out with AlphaLISA SureFire Ultra pERK1/2 (Thr 202/Tyr204) kit (Perkin Elmer), and BaF3 cells were done using AlphaScreen pERK1/2 (Thr202/Tyr204) kit (Perkin Elmer).
All cellular phosphorylation data were analyzed using 3-parameter non-linear regression curve in GraphPad Prism 7. Graphs are represented as relative maximal (100%) response of the positive control. All other test analog signals were adjusted accordingly as % values. For antagonistic assays, the difference between the p-ERK signal at baseline (fixed dose of FGF-stimulation, no antagonist peptide added) and the highest dose of the positive control, either FGF21^18−181, 21C25 or 19C26 for respective assay, was set to 100%. Similarly, for an agonist assay, the difference between the p-ERK signal of baseline (only cell culture medium, no agonist) and the highest dose of the positive control either FGF21 in 293/KLB cells or FGF19 in Hep3B cells was used to establish 100% response. Each peptide and protein analog was tested in triplicates in three independent experiments (n = 3), and normalized graphs plotted are expressed as mean ± SD unless otherwise noted.
The C-terminal region of FGF21 binds to KLB as previously implied by FGF21^18−181 antagonism. […] For comparative purposes, we utilized an in vitro assay in which we monitored dose-dependent attenuation of FGF-induced ERK phosphorylation in human KLB overexpressing 293T HEK cells (293/KLB).

lean (C57BL/6J) mice = assay: In vivo peptide antagonism study, cFos and EGR1 mRNA in pancreas and eWAT; parameters: species or system mouse; details: WAT and pancreas
Source text: All animal studies were approved by and performed according to the guidelines of the Institutional Animal Care and Use Committee of the University of Cincinnati (Cincinnati, USA). Eight-week old male C57BL/6J mice (Jackson Laboratories) were given ad libitum access to either a chow diet (lean mice), or a high-fat high-sugar diet (HFD, DIO mice) containing 58% kcal from fat (Research Diets, catalog# D12331). For DIO mice, animals were maintained on the HFD for a minimum of 3 months prior to initiation of the pharmacological studies. The mice were maintained at 22 °C on a 12-h light–dark cycle with free access to water. Before the beginning of the studies, mice were randomized into treatment groups according to body weight. All injections and tests were performed during the light cycle with a group size of n = 8.
Mice were administered vehicle, FGF21 (1 mg/kg), or FGF19 (1 mg/kg) alone or in combination with 19C26,A^26 (30 mg/kg), (dosed 15 min prior to FGF21 or FGF19 administration) via sc injections. One-hour post FGF21 or FGF19 dosing, the mice were sacrificed and their plasma, pancreas, and epididymal white adipose tissue (eWAT) were harvested for analyses. Total RNA was isolated from pancreatic and eWAT tissues using Trizol phenol-chloroform extraction (Invitrogen, Cat#155596026) and purified using an RNeasy mini (Cat#74104) and on-column DNAse digest (Cat#79254) kits (Qiagen). Following reverse transcription, levels of cFos and early growth response-1 (EGR1) mRNA levels were subsequently probed by quantitative PCR (ThermoFisher) and analyzed by ΔΔCT method.
Statistical analyses for in vivo experiments were performed on data using a one- (Figure 5A,B and 5D) or two-way (Figure 5C) ANOVA followed by Tukey post hoc multiple comparison analysis. All results are presented as mean ± SEM, n = 5–8, and P < 0.05 was considered significant. Group size estimations were based upon a power calculation to minimally yield an 80% chance to detect a significant difference in body weight of P < 0.05.

[2] = test system: FGF19 signaling in 293/KLB cells; assay: Peptide antagonism of FGF19-induced pERK, AlphaLISA; assay type: cell-based, human; details: fixed dose of FGF19, 10 min at 37° C, n = 3
Procedure: as §1, with “Following the respective cell treatments, the cells were lysed (with lysis buffer provided in the kit) for 10 min at room temperature on a shaker and the lysate was mixed with reaction mixture (consisting of reaction buffer, activation buffer, acceptor and donor beads provided in the kit).” left out, “The cell assays corresponding to 293/KLB or Hep3B cells were carried out with AlphaLISA SureFire Ultra pERK1/2 (Thr 202/Tyr204) kit (Perkin Elmer), and BaF3 cells were done using AlphaScreen pERK1/2 (Thr202/Tyr204) kit (Perkin Elmer).” left out
(§2) All cellular phosphorylation data were analyzed using 3-parameter non-linear regression curve in GraphPad Prism 7. […] Each peptide and protein analog was tested in triplicates in three independent experiments (n = 3), and normalized graphs plotted are expressed as mean ± SD unless otherwise noted.

[3] = test system: signaling of FGF1 in 293/KLB cells; assay: Peptide antagonism of FGF1 signaling in 293/KLB cells; assay type: cell-based, human; details: data not shown
[4] = test system: signaling of FGF23 in 293/KL cells overexpressing human Klotho; assay: Peptide antagonism of FGF23 signaling in 293/KL cells; assay type: cell-based; details: data not shown
[5] = test system: FGF19 signaling in Hep3B cells; assay: Peptide antagonism of FGF19 signaling in Hep3B cells; assay type: cell-based, human; details: n = 3
Procedure: as §1, with “Following the respective cell treatments, the cells were lysed (with lysis buffer provided in the kit) for 10 min at room temperature on a shaker and the lysate was mixed with reaction mixture (consisting of reaction buffer, activation buffer, acceptor and donor beads provided in the kit).” left out, “The cell assays corresponding to 293/KLB or Hep3B cells were carried out with AlphaLISA SureFire Ultra pERK1/2 (Thr 202/Tyr204) kit (Perkin Elmer), and BaF3 cells were done using AlphaScreen pERK1/2 (Thr202/Tyr204) kit (Perkin Elmer).” left out
as §2

293/KLB cells = assay: Agonist pERK AlphaLISA assay in 293/KLB cells; assay type: cell-based, human; details: 10 min at 37° C, n = 3
Procedure: as §1
All cellular phosphorylation data were analyzed using 3-parameter non-linear regression curve in GraphPad Prism 7. Graphs are represented as relative maximal (100%) response of the positive control. All other test analog signals were adjusted accordingly as % values. […] Each peptide and protein analog was tested in triplicates in three independent experiments (n = 3), and normalized graphs plotted are expressed as mean ± SD unless otherwise noted.

human FGFR1c/KLB = target: T1, human FGFR1c/KLB (Homo sapiens, UniProt P11362+Q86Z14); assay: AlphaScreen cell-free binding assay, displacement of biotinylated FGF21; details: peptides compete with FGF21 for human FGFR1/KLB complex, mean, n = 2, NC = Not Calculated due to negligible activity at the tested concentrations
T1 construct: while adding human soluble KLB generated a signal; purchased R&D Systems
T1 sequence (Q86Z14 1-996 limits assumed): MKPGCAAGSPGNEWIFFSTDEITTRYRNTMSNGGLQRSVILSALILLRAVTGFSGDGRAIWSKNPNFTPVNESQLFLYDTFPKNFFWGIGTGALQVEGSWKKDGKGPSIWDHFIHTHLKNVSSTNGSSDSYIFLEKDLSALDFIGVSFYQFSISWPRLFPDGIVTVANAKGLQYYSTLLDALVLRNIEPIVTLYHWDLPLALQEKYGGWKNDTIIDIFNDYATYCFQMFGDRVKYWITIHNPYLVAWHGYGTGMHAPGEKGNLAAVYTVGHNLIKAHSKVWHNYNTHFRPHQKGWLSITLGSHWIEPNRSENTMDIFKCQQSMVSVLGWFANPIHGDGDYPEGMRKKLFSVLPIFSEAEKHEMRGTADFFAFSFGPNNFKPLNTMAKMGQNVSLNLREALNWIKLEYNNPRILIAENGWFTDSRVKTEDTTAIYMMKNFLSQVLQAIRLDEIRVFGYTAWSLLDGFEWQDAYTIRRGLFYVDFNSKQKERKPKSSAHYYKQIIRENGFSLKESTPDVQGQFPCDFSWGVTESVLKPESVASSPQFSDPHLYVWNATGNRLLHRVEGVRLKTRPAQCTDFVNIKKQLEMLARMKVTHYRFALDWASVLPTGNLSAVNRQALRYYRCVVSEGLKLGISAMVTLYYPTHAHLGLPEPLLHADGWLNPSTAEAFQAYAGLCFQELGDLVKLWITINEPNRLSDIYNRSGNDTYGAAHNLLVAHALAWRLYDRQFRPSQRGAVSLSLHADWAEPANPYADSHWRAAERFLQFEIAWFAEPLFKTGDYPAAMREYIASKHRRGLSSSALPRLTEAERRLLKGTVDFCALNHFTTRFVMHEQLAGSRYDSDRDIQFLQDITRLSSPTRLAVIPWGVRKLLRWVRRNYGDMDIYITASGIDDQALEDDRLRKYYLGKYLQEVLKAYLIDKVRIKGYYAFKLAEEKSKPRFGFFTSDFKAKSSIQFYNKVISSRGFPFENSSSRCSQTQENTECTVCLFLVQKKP
T1 sequence (P11362 22-376 partner limits assumed): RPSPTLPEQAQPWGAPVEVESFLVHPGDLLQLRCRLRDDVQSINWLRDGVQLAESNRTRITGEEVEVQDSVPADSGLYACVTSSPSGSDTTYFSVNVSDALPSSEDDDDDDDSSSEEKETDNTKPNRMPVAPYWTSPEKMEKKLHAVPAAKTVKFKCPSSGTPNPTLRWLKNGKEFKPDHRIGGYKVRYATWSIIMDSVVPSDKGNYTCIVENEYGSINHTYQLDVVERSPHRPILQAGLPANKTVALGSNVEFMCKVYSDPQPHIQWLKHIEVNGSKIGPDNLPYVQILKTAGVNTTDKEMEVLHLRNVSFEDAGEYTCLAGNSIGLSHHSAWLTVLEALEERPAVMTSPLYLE
Procedure: Biotinylated FGF21 was coupled to Streptavidin-coated donor beads (AlphaScreen technology, Perkin Elmer), and the ectodomains of human FGFR4 fused to Fc (R&D Systems) or FGFR1c fused to Fc (R&D Systems) were coupled to Protein A acceptor beads (AlphaScreen technology, Perkin Elmer). Human KLB protein (R&D Systems) was added to the mixture of biotinylated-FGF21-Streptavidin donor beads and FGFR-Fc-Protein A acceptor beads, bringing the beads in close proximity producing a signal, in the presence of 5 μg/ml Heparin and 0.1% BSA. Increasing doses of FGF21 C-terminal peptides were added and if their binding to the receptor complex were to take place, the biotinylated FGF21 would be displaced to consequently decrease the signal. The EnVision Multilabel Plate Reader (Perkin Elmer) was used to quantify the emitted light signal at 570 nm.
Supplementary file mmc1.pdf: Multimedia component 1 Table S1. Nomenclature for FGF protein and C-terminal peptide analogs. Table S2. Receptor binding of C-terminal FGF21 Ala-scan peptides. IC50 values (μM, mean, n = 2) with fold-change for 21C25 Ala-scan peptides versus native peptide in a cell free AlphaScreen binding assay where the 21C25 Ala peptides competed with FGF21 to associate with the human FGFR1/KLB complex. NC denotes where IC50 values were Not Calculated due to negligible activity at the tested concentrations.

19C25: FGF19-based C-terminal peptide of 25 amino acids (LETDSMDPFGLVTGLEAVRSPSFEK-NH2)
Antagonism of FGF21 signaling (pERK), in words [1]: comparable to FGF21^18−181 in their antagonistic effect

19C26,A^26: 19C26 with alanine substitution of the terminal lysine; most potent peptide antagonist (PLETDSMDPFGLVTGLEAVRSPSFEA-NH2)
cFos and EGR1 mRNA levels, peptide antagonist alone (lean (C57BL/6J) mice; 30 mg/kg sc): no effect on cFos and EGR1 mRNA levels
Block of FGF19- or FGF21-stimulated cFos and EGR1 gene induction (lean (C57BL/6J) mice; antagonist 30 mg/kg sc 15 min before FGF19 or FGF21 1 mg/kg sc, one hour post dosing): completely eliminated the ability of FGF19 or FGF21 to stimulate gene induction
Antagonism of FGF19 signaling (pERK), in words [2]: at least twenty-fold greater potency
Antagonism of FGF21 signaling (pERK), in words [1]: at least twenty-fold greater potency

19C26: FGF19-based C-terminal peptide of 26 amino acids (169-194), C-terminal amide (PLETDSMDPFGLVTGLEAVRSPSFEK-NH2)
Attenuation of FGF1 signaling, in words [3]: unable to attenuate signaling of FGF1
Antagonism of FGF19 signaling (pERK), in words [2]: blocked FGF19 activity comparably to that of FGF21
Attenuation of FGF23 signaling, in words [4]: unable to attenuate signaling
Antagonism of FGF21 signaling (pERK), in words [1]: comparable to FGF21^18−181 in their antagonistic effect
Antagonism of FGF19 signaling (pERK), in words [5]: blocked FGF19 activity comparably to that of FGF21

21C22: C-terminal FGF21 peptide of 22 residues (VGSSDPLSMVGPSQGRSPSYAS-NH2; UniProt Q9NSA1 188-209, looked up, fragment)
Antagonism of FGF21 signaling (pERK), in words [1]: had no effect within the dose range examined

FGF2
pERK agonist activity, in words (293/KLB cells): picomolar activities

FGF19: Human FGF19 (#O95750: 23–216, designated 1–194)
cFos and EGR1 transcriptional activity, FGF alone (lean (C57BL/6J) mice; 1 mg/kg sc, one hour): induced robust transcriptional activity in each tissue
pERK agonist activity, in words (293/KLB cells): nanomolar potencies

PPDVGSSDPLSMVGPSQARSPSYAS-NH2 [174 G]
IC50 (human FGFR1c/KLB): 150 nM

PPDVGSSDPLSMVGPSQGASPSYAS-NH2 [175 R]
IC50 (human FGFR1c/KLB): 50 nM

PPDVGSSDPLSMVGPSQGRSPSYAA-NH2 [181 S]
IC50 (human FGFR1c/KLB): 50 nM

PPDVGSSDPLSMVGPSQGRSPSYAS-NH2 [21C25]
IC50 (human FGFR1c/KLB): 150 nM
